From patent US10273210B2, “Pyridine compound” (Sumitomo Chemical Company, Limited, priority 2015, dated 2019) come the findings set out here.

In test [1] the test system is cotton aphid (Aphis gossypii). In words: Test Example 1: foliar spray on cucumber seedlings infested with cotton aphid, controlling value. In kind it is in vivo. The settings on record: 120 h, spray 10 mL/seedling on cucumber, 5 days after spraying, 25° C. The source says:
Controlling value (%)={1−(Cb×Tai)/(Cai×Tb)}×100 wherein the symbols in the formula represent the following meanings. Cb: Number of the test insects in untreated group; Cai: Number of the surviving insects at the time of the investigation in untreated group; Tb: Number of the test insects in treated group; Tai: Number of the surviving insects at the time of the investigation in treated group; Here the “untreated group” represents a group where a similar treatment procedure to that of the treated group except not using each test compound is done.

Test [2] has as its system housefly (Musca domestica). Put plainly: whole plant or invertebrate. It is filed as in vivo. Particulars: 24 h, read-out: mortality of insects. The method, then: A bottom of a plastic cup having a diameter of 5.5 cm is lined with the same size of a filter paper, and each of the diluted solutions (0.7 mL) is added dropwise on the filter paper, and sucrose (30 mg) is homogeneously placed into the plastic cup as a bait.

In test [1], `CCS(=O)(=O)c1ccc(N)cc1-c1ccc(OCC(F)(F)C(F)(F)F)cn1` [Present compound 62] registered a pest or weed control at 200 ppm of at least 90% and a pest or weed control at 500 ppm of at least 90%.

In test [1], `CCS(=O)(=O)c1cc(C(=O)O)ccc1-c1ccc(OCC(F)(F)C(F)(F)F)cn1` [Present compound 61] showed a pest or weed control at 200 ppm of at least 90% and a pest or weed control at 500 ppm of at least 90%.

In test [1], `CCSc1cc(C#N)ccc1-c1ccc(OCC(F)(F)C(F)(F)F)cn1` [Present compound 59] returned a pest or weed control at 200 ppm of at least 90% and a pest or weed control at 500 ppm of at least 90%.

Take `CCS(=O)(=O)c1cc(-n2cncn2)ccc1-c1ccc(OCC(F)(F)C(F)(F)F)cn1` [Present compound 67]: in test [1], the pest or weed control at 200 ppm is at least 90% and the pest or weed control at 500 ppm is at least 90%. Also, the mortality at 500 ppm in test [2] was at least 100%.

In test [1], `CCS(=O)(=O)c1cc(-c2ccccn2)ccc1-c1ccc(OCC(F)(F)C(F)(F)F)cn1` [Present compound 68] displayed a pest or weed control at 200 ppm of at least 90% and a pest or weed control at 500 ppm of at least 90%.

For the molecule `CCS(=O)(=O)c1cc(NC(=O)C2CC2)ccc1-c1ccc(OCC(F)(F)C(F)(F)F)cn1` [Present compound 63], the pest or weed control at 500 ppm in test [1] was at least 90%.

In test [1], `CCS(=O)(=O)c1cc(C#N)ccc1-c1ccc(OCC(F)(F)C(F)(F)F)cn1` [Present compound 60] registered a pest or weed control at 200 ppm of at least 90% and a pest or weed control at 500 ppm of at least 90%.

As for `CCS(=O)(=O)c1cc(N)ccc1-c1ccc(OCC(F)(F)C(F)(F)F)cn1` [Present compound 53], the pest or weed control at 500 ppm in test [1] was at least 90%.

What is called pest or weed control is how far the test organism was held down. The term mortality denotes the percentage killed.
